Target: T1, M4 (Homo sapiens, UniProt P08173)
T1 construct: expressed in transfected cells; host or cells: CHO cells
T1 sequence (P08173 1-479): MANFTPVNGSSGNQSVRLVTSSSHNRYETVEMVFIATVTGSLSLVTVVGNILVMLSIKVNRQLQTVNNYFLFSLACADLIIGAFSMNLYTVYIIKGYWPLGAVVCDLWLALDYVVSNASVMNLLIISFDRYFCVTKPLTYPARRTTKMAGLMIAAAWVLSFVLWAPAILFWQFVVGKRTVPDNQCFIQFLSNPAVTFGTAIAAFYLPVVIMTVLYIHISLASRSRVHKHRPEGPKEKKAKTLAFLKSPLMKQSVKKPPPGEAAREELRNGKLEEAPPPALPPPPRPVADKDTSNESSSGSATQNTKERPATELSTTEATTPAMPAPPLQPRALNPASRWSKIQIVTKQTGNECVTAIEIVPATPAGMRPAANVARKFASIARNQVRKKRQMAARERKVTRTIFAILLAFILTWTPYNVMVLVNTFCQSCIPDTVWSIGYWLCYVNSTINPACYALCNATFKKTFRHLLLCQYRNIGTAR
Assay: In vitro radioligand binding assay, M4, [3H]4-DAMP
Details: human recombinant (CHO cells)
Protocol: Certain compounds were tested by in vitro binding assays using standard procedures. […] These receptors and assays are well known to those skilled in the art, as exemplified by the following: Abramovitz, M. et al. (2000), Biochem. Biophys. Acta., 1483: 285-293 (EP4, IP (PGI2)); Aharony, D. et al. (1993), Mol. Pharmacol., 44: 356-363 (NK2); Ardati, A. et al. (1997), Mol. Pharmacol., 51: 816-824 (NOP (ORL1)); Bignon, E. et al. (1999), J. Pharmacol. Exp. Ther. 289: 742-751 (CCK1 (CCKA)); Bloomquist, B. T. et al. (1998), Biochem. Biophys. Res. Commun., 243: 474-479 (GAL2); Brockhaus, M. et al. (1990), Proc. Natl. Acad. Sci. U.S.A., 87: 3127-3131 (TNF-α); Brown, G. B. (1986), J. Neurosci., 6: 2064-2070 (Na+ channel (site 2)); Buchan, K. W. et al. (1994), Brit. J. Pharmacol., 112: 1251-1257 (ETA); Cesura, A. M. et al. (1990), Mol. Pharmacol., 37: 358-366 (MAO-A); Choi, D. S. et al. (1994), FEBS Lett., 352: 393-399 (5-HT2B); Clark, A. F. et al. (1996), Invest. Ophtalmol. Vis. […]

Fc1cccc2c1CCO[C@@H]2[C@H]1CCN1 [Compound I-96, (R)-2-((S)-5-fluoroisochroman-1-yl)azetidine]
M4 percent inhibition of specific binding: M4 (53%)

Source: US10336732B2, “1-heterocyclyl isochromanyl compounds and analogs for treating CNS disorders” (Sunovion Pharmaceuticals Inc., priority 2015, dated 2019)
